Patent publication US11229810B2, “Methods and systems for producing neuronal lesions using magnetic resonance and acoustic energy” (University of Virginia Patent Foundation, priority 2017, dated 2022)

Test system: lateral aspect of the hippocampus
Assay: MRgFUS + microbubbles + QA lesion study in rats, followed by T2-TSE MR imaging
Format: in vivo, Male Sprague Dawley rats
Settings: rat, QA 0.06 mmol (1 ml of 10 mg/ml) intraperitoneally once per day for 4 days beginning 2 days prior to insonification, saline-treated animals normal
Description: An illustrative example is described below, concerning a study of techniques herein as applied to a particular subject. Male Sprague Dawley rats (e.g., 5-6 weeks of age (120-150 g)), were divided into two groups receiving the following treatments: 1) MRgFUS+microbubbles+saline (n=5), or 2) MRgFUS+microbubbles+QA (n=5). QA was dissolved in 0.1M PBS (10 mg/ml). Either 1 ml of the QA solution (0.06 mmol) or 1 ml of saline was injected intraperitoneally once per day for 4 days beginning 2 days prior to insonification. Phospholipid encapsulated microbubbles (mean size: ˜5 um; concentration: 6×10^8 microbubbles/ml; volume injected: 300 μl/kg) and Gadodiamide contrast (Omniscan, 0.2 ml/kg) were delivered via the tail vein just prior to sonification.
An acoustic energy delivery system was configured in a manner similar to that discussed above as in system 100 and in this illustrative example, the system included an MR-compatible, pre-focused, 8-element annular array comprising 1.5 MHz transducers 111 (e.g., having spherical radius=20 mm±2 mm, active diameter=25 mm [focal ratio=0.8]; an ultrasonic transducer with 80% electric-acoustic efficiency, which was connected to a phased array generator and RF power amplifier. An MR-compatible motorized positioning stage was used to move the transducer in the rostral-caudal and medial-lateral directions. […]

In the case of `O=C(O)c1cccnc1C(=O)O` [QA, quinolinic acid], the “T2-TSE imaging appearance of brain, 24 hours post-insonification” value (24 hours post-insonification) was “exhibited hyperintensity in the area of insonification” and the “T2-TSE imaging appearance of brain, 7 days post-insonification” value (7 days post-insonification, no evidence of a lesion) was “exhibited signs of damage in the region of insonification”.
